Tests used:
[1] = test system: parietotemporal cortex of humans; conditions: cited from earlier work
DBA and C57BL/6 mice = assay: Mouse plus (water) maze, spatial learning; type: in vivo; conditions: 0.3 or 1.0 mg/kg i.p.
Method: The mouse plus maze probes spatial learning processes (Decker and McGaugh, Brain Res. 1989, 477:29). Animals are placed at the terminus of one arm of a four-arm maze submerged in opaque (powdered milk) 25° C. water. Their task is to locate a stationary escape platform hidden at the end of one arm of the maze. The platform remains in the same position across all 4 days of testing. Six daily trials are conducted, during which choice accuracy (correct or incorrect) and latency to escape (maximum=60 seconds) are recorded. Animals failing to escape within 60 seconds are gently guided to the platform, where they are allowed to sit for 20 seconds.
Accordingly, adult male DBA and C57 mice (n=~10/group) were treated with the compound of Example 1 or RS-86 (0, 0.3, or 1.0 mg/kg, i.p.) approximately 45 minutes prior to 4 consecutive daily water maze sessions. Choice accuracy was assessed daily, with day 4 accuracy serving as the primary measure of learning.

DBA mice = assay: Inhibitory (passive) avoidance test, 72 hour retention; type: in vivo, mouse
Excerpt: The inhibitory (or sometimes called passive) avoidance (IA) test is a well accepted animal model of learning/memory used to assess the activity of novel muscarinic agonists to enhance cognitive function (Wanibuchi et al., Eur. J. Pharmacol., 1990, 187:479). Animals are placed in the illuminated (12×14×11 cm) portion of a two-chambered box, from which they enter through a guillotine door to the larger (24×13.5×12 cm) dark compartment of the box. Entry to the dark compartment is accompanied by a mild (0.5 mA), brief (2 seconds) footshock. Initial latencies to cross are recorded, with an imposed 60 second ceiling. Following a 72 hour retention interval, animals are returned to the illuminated chamber, and latency to return to the dark compartment is again recorded, with a ceiling of 180 seconds. No footshock is administered on the test day.
Previous studies have indicated a retention deficit in DBA versus CD1 mice in the 72 hour retention model. Accordingly, adult male DBA mice (n=~15/group) were injected with either the compound of Example 1 or the reference standard RS-86 (0, 0.3, 1.0, or 3.0 mg/kg, i.p.) approximately 45 minutes prior to the training described above. Saline-treated adult male CD1 mice (n=15) served as controls.

cardiac receptors = conditions: cited from earlier work
[2] = test system: cholinergic receptors located in the heart and cortical tissues; conditions: words; cited from earlier work
CD1 mice = assay: Locomotor activity in automated activity monitors; type: in vivo, mouse
Method: Adult male CD1 mice (n=8/group) were injected with the compound of Example 1 or RS-86 (0, 0.3, 1.0, or 3.0 mg/kg, i.p.) approximately 45 minutes prior to placement in automated activity monitors (Omnitech; Columbus, Ohio). These enclosures, measuring 40×40×42 cm, are equipped with a series of photocells and generate measurements of a variety of locomotor activities.

cortical receptors = conditions: cited from earlier work
male CD1 mice = assay: Toxicology / side-effects; type: in vivo; conditions: for Fatalities: 0.3, 1.0, 3.0 mg/kg i.p.; for Tolerability: 0.3 and 1.0 mg/kg i.p.
[3] = rat; cited from earlier work
acetylcholine receptors = conditions: chronic administration; cited from earlier work
[4] = test system: nigro-striatal dopamine system; conditions: chronically administered, after destruction of nigro-striatal dopamine system; cited from earlier work
rats = conditions: acutely and chronically administered; cited from earlier work
[5] = in vivo, cited from earlier work
rat brain receptor sites = conditions: cited from earlier work
M1 muscarinic receptor = target: T1, M1 muscarinic receptor (Rattus norvegicus, UniProt P08482); assay: Competition with [3H]pirenzepine at cortical M1 muscarinic receptors; type: binding; conditions: Table 1; [3H]pirenzepine, rat fronto-parietal cortex, 25° C., pH 7.4; read-out: Ki @ M1 RECEPTOR
T1 construct: from tissue; host or cells: adult rat fronto-parietal cortex membranes (homogenate)
T1 sequence (P08482 1-460): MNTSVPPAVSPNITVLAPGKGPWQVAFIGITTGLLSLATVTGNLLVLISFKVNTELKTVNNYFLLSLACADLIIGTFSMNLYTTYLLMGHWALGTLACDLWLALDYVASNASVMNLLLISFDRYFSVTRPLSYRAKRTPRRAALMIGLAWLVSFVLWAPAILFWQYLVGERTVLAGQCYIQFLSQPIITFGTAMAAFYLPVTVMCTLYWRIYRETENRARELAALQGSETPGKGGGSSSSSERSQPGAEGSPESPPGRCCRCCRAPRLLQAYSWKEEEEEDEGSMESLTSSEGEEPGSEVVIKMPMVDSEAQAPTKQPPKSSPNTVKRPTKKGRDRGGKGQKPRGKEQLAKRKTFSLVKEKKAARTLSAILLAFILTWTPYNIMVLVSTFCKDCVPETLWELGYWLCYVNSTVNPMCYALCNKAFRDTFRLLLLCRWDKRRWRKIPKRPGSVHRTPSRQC

M2 muscarinic receptor = M2 muscarinic receptor (Rattus norvegicus, UniProt P10980); type: binding; conditions: read-out: Ki @ M2 RECEPTOR; Table 1; [3H]QNB, rat pons-medulla, 25° C., pH 7.4
muscarinic receptors = assay: Initial screening at muscarinic receptors; type: binding; conditions: words, on Table 1 data
[6] = test system: Rat striatal muscarinic receptors; assay: Agonist intrinsic activity: inhibition of forskolin-activated [3H]cAMP in dissociated rat striatum; type: cell-based
Excerpt: Rat striatal muscarinic receptors are coupled to the inhibition of the conversion of adenosine triphosphate (ATP) to cyclic adenosine monophosphate (cAMP). […] The ATP stores in dissociated rat striatum were labeled with [^3 H]adenine and [^3 H]-cAMP levels were elevated with 10 um forskolin.

M2 muscarinic receptor, sequence (P10980 whole entry): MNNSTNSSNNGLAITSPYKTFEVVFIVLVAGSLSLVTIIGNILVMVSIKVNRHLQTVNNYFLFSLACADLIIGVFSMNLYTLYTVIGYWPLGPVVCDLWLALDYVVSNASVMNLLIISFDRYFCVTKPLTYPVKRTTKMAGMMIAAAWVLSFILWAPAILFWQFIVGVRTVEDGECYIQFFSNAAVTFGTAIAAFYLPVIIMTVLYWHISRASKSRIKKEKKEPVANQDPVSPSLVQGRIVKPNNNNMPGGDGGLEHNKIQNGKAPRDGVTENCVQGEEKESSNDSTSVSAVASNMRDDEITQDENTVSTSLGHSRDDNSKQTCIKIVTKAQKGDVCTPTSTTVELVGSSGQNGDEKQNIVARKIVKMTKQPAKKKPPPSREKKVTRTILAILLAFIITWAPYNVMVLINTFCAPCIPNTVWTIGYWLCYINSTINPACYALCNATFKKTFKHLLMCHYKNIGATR

Structure (SMILES): CNC1(C)C2CCC(C2)C1(C)C (stereo not drawn) [mecamylamine]
- Resting cortical perfusion [1]: reduce resting cortical perfusion

Structure (SMILES): CCN1C(=O)CC2(CCN(C)CC2)C1=O [RS-86]
- Water maze performance in DBA or C57 mice (DBA and C57BL/6 mice): no beneficial effect on water maze performance
- Animals that completely failed to cross to the dark compartment in training (DBA mice; 3.0 mg/kg i.p.): nine
- Training latencies relative to all other groups (DBA mice; 3.0 mg/kg i.p., F (4,72)=25.8, p<0.00001): elevated relative to all other groups
- 72 hour retention deficit of untreated DBAs (DBA mice; RS-86 0.3-3.0 mg/kg i.p.): apparently eliminated the 72 hour retention deficit
- Agonism at cardiac receptors (cardiac receptors): full agonist
- Potency and selectivity [2]: poor potency and lack of selectivity
- Horizontal activity (CD1 mice; 3.0 mg/kg i.p., F (3,28)=29.17, p<0.00001): profound and significant [F (3,28)=29.17, p<0.00001] reduction in horizontal activity
- Activity versus animals dosed with the compound of Example 1 (CD1 mice; 0.3 or 1.0 mg/kg i.p.): did not significantly differ
- Agonism at cortical receptors (cortical receptors): partial agonist
- Classic signs of cholinostimulation (male CD1 mice; 3.0 mg/kg i.p.): salivation, lacrimation, urination, defecation, and tremor
- Hypothermic response versus similar dose of Example 1 (male CD1 mice; 3.0 mg/kg i.p.): greater hypothermic response
- Signs observed (male CD1 mice; 3.0 mg/kg i.p.): dyspnea and decreased activity
- Fatalities (male CD1 mice): No fatalities
- Tolerability (male CD1 mice): well tolerated

Structure (SMILES): O=C1NC(=O)C2(CCNCC2)N1c1ccccc1 [1-phenyl-1,3,8-triazaspiro[4,5]decan-2,4-dione]
- Metabolite of fluspirilene [3]: major product of the metabolism of the neuroleptic drug, fluspirilene

Structure (SMILES): CN1CCC[C@H]1c1cccnc1 [nicotine]
- Effect on affinity of acetylcholine for the receptor (acetylcholine receptors): without affecting the affinity of acetylcholine for the receptor
- Up-regulation of the number of acetylcholine receptors (acetylcholine receptors): 50-100%
- Action on neuronal and vascular functions [4]: regenerative/protective action
- Cognitive function (rats): enhance cognitive function in rats
- Oral bioavailability ([5]; po): poor oral bioavailability
- Pharmacokinetics [5]: unfavorable pharmacokinetics

Structure (SMILES): CC1CCCCN1 (racemic) [(+)isomer of (±)2-methylpiperidine, (+)2-methylpiperidine]
- Binding of nicotinic ligand (rat brain receptor sites): enhances the binding of nicotinic ligand

Structure (SMILES): CC1OC2(CCN(C)CC2)CN1C=O.O=C(O)C(=O)O (stereo not drawn) [Example 1, 2,8-Dimethyl-1-oxa-3-formyl-3,8-diazaspiro[4,5]decane hydrogen oxalate]
- Enhancement of learning (choice accuracy) (DBA and C57BL/6 mice): modest, albeit statistically non-significant, enhancement of learning
- Performance of DBA mice versus chance level (DBA and C57BL/6 mice; from second day of testing): consistently performed above chance levels
- Ki (M1 muscarinic receptor): 32 µM
- Ki (M2 muscarinic receptor): 30 µM
- Latencies across dose groups (DBA mice; 0, 0.3, 1.0, 3.0 mg/kg i.p., DBA mice): latencies were equivalent across all groups
- 72 hour retention deficit of DBA mice (DBA mice; 1.0 mg/kg i.p., U=171.5, z=2.04, p<0.05): significant attenuation of the observed retention deficit
- 72 hour retention deficit of DBA mice (DBA mice; 3.0 mg/kg i.p., U=172, z=2.0, p<0.05): significant attenuation of the observed retention deficit
- Binding to M1 and M2 muscarinic receptors (muscarinic receptors): binds to both M1 and M2 muscarinic receptors
- Mean horizontal activity counts (CD1 mice; all doses (0, 0.3, 1.0, 3.0 mg/kg i.p.)): equivalent across all doses
- Separation of hypoactivity from cognitive enhancement versus RS-86 (CD1 mice; compared with RS-86): more favorable separation of hypoactivity from the desired activity of cognitive enhancement
- Emax ([6]; Rattus norvegicus, read-out: INTRINSIC ACTIVITY (% relative to carbacol)): 53%
- Agonist character at central muscarinic receptor ([6]; rat striatum): central muscarinic receptor agonist with partial agonist activity
- Signs observed (male CD1 mice; 3.0 mg/kg i.p.): some dyspnea and a mild decrease in spontaneous activity
- Fatalities (male CD1 mice): No fatalities
- Tolerability (male CD1 mice): well tolerated
- Side-effects in general versus RS-86 (male CD1 mice; compared with RS-86): more benign side-effects
